The values that follow are results of earlier work, collected in US8137579B2, “Non-aqueous heat transfer fluid and use thereof” (priority 1993, dated 2012).

Data set [1] has as its system laboratory rats.
The subject of data set [2] is humans.
Where [3] appears, read: laboratory rats, single dose, acute oral.

SMILES strings stand for the structures. Like-named read-outs stand apart in the source and are kept apart here.

In the case of `OCCO` [EG, ethylene glycol], the LD50 rating in data set [1] (setting [3]) is 6100 mg/kg. Moreover, in data set [2], the “toxic level to humans, reported as low as” value is on record as 0.398 g/kg. In the case of `CC(O)CO` (stereo not drawn) [PG, propylene glycol], in data set [1] (setting [3]), the LD50 rating is 33700 mg/kg. Turning to `OCCOCCO` [Diethylene glycol], the LD50 rating in data set [1] (setting [3]) was 16600 mg/kg. Take `CC(O)COC(C)COC(C)CO` (stereo not drawn) [tripropylene glycol]: the LD50 rating in data set [1] (rat, in vivo, po) is 3000 mg/kg.

For the compound `OCCOCCOCCO` [triethylene glycol], the LD50 rating in data set [1] (rat, in vivo, po) is 22000 mg/kg.
